In the supplement of paper PMC10290057:
Where a name gives a salt, the structure may show the parent alone.

What follows are molecules tested on HCT116 (assay: efficacy (fitted maximal change in viability relative to DMSO control); higher = less cytotoxic (negative = loss of viability)). Settings: 48 h.
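Further: Luminescence-based viability readout, five doses per compound, normalized against on-plate DMSO and empty-well controls, followed by dose-response curve fitting for every drug.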

SMILES | efficacy [%]
N=C1N[C@H]2[C@H](CS[C@H]2CCCCC(=O)O)N1 [2-Iminobiotin] | 16
COc1cc(C)c(/C=C/C(C)=C/C=C/C(C)=C/C(=O)O)c(C)c1C [Acitretin] | -17.3
CCn1c(C(=O)N(C2CC2)C2CC2)cc2c3c(ncn3C)c(Nc3cc(C)n(C)n3)nc21 | -25.7
CCOC(=O)C/1=C(C)/NC(=S)NC1C2=CC=CC(=C2)O (stereo unspecified) [Monastrol] | -52.1
Cc1ccc(NC(=O)[C@H]2CCCN(C(=O)c3c(C)cccc3F)[C@H]2c2ccc(NC3CCCC3)cc2)cc1C(F)(F)F [Avacopan] | -27.6
NCCCC[C@H](NC(=O)[C@@H](NC(=O)[C@H](Cc1c[nH]c2ccccc12)NC(=O)[C@H](CCCCN)NC(=O)[C@H](CCCCN)NC(=O)[C@H](Cc1c[nH]c2ccccc12)NC(=O)[C@H](Cc1c[nH]c2ccccc12)NC(=O)[C@H](CCCCN)NC(=O)[C@@H](N)CCCCN)C(c1ccccc1)c1ccccc1)C(N)=O [LTX-315] | -89.2
Cc1cc(SCc2sc(-c3ccc(C(F)(F)F)cc3)nc2C)ccc1OCC(=O)O | -13.6
CN1C(=O)C(=C\C2=C1N=C(NC3=CC=CC(=C3)C(O)=O)N=C2)/C4=C(Cl)C=CC=C4Cl | -10.3
O=C1CCC[C@@H]2[C@H]3CCC[N+]4([O-])CCC[C@@H](CN12)[C@@H]34 (stereo partly specified) [Oxymatrine] | -29.8
CC(C)Nc1cc(C(F)(F)F)cc2nc(NC(=O)c3cccnc3)nn12 [S-99] | -15
CN1[C@@H]2CCC[C@H]1CC(NC(=O)c1nn(C)c3ccccc13)C2 (stereo partly specified) [Granisetron (AB-1001)] | -17.2
C[C@]12COC(=O)C[C@@H]1CC[C@@H]1[C@@H]2CC[C@@]2(C)[C@H]1CC[C@]2(C)O [Oxandrolone] | -21.6
CN(C)c1ccc(Nc2nc(N)n(C(=O)c3c(F)cccc3F)n2)cc1 | -100
NC(CC1c2ccccc2Oc2ccccc21)(C(=O)O)C1CC1C(=O)O (stereo unspecified) | -10.8
CC1=C(/C=C/C(C)=C/C=C/C(C)=C/C(=O)O)C(C)(C)CCC1 [Tretinoin] | -22.5
OC(COC1=C2C(=O)\C=C(/OC2=CC=C1)C([O-])=O)COC3=C4C(=O)\C=C(/OC4=CC=C3)C([O-])=O [Sodium cromoglycate] | -6.55
O=C(O)CC(C(=O)O)N1C(=O)/C(=C2/C(=O)Nc3ccc(Br)cc32)SC1=S (stereo unspecified) [BCL6 Inhibitor] | -11.7
CO[C@H]1C[C@@H]2CC[C@@H](C)[C@@](O)(O2)C(=O)C(=O)N2CCCC[C@H]2C(=O)O[C@H]([C@H](C)C[C@@H]2CC[C@@H](OCCO)[C@H](OC)C2)CC(=O)[C@H](C)/C=C(/C)[C@@H](O)[C@@H](OC)C(=O)[C@H](C)C[C@H](C)\C=C/C=C\C=C/1C [Everolimus] | -57.4
CN1C(=O)/C(=C(NC2=CC=C(I)C=C2F)\C3=C1\N=C/N(C[C@@H](O)CO)C3=O)F [TAK-733] | -73.1
CC1(C)NC(=O)N(c2ccc([N+](=O)[O-])c(C(F)(F)F)c2)C1=O [Nilutamide] | -35.5
N=C1S/C(=C\c2ccc(-c3ccc4c(c3)C(=O)NC4=O)o2)C(=O)N1c1ccc(Br)cc1 [Bioymifi] | -15.3
CC(C)=CC[C@@H](O)C/1=C/C(=O)C2=C(O)C=CC(=C2C1=O)O [Shikonin] | -13.1
O=C(Nc1ccc2c(c1)CCN(Cc1ncn[nH]1)C2)c1ccccc1-c1ccc(C(F)(F)F)cc1 | 17.5
O=C(NC[C@H](O)CN1CCc2ccccc2C1)c1cc(NC2COC2)ncn1 | 13

SMILES | efficacy [%]
COC1=CC=CC2=C1C(=C(/C(=O)N(C)C3=CC=C(C=C3)C(F)(F)F)C(=O)N2C)/O [Tasquinimod] | -6.06
CONC(=O)c1ccccc1Nc1cc(Nc2cc(C)nn2C(C)C)ncc1Cl | -40.7
N\C1=N\C2=C(N=C[N]2COCCO)C(=O)N1 [Aciclovir] | -8.84
CC(=O)O[C@@]1(CC[C@H]2[C@@H]3\C=C(C)/C4=C/C(=O)CC[C@]4(C)[C@H]3CC[C@]12C)C(C)=O [Megestrol acetate] | -13.4
O=C1CCc2cc(OCCCCc3nnnn3C3CCCCC3)ccc2N1 [Cilostazol] | -26.7
C[C@@H]1CC[C@@]2(CC[C@]3(C)\C(=C/C[C@@H]4[C@@]5(C)CC[C@H](O)C(C)(C)[C@@H]5CC[C@@]34C)[C@@H]2[C@H]1C)C(O)=O [Ursolic acid] | 6.32
COC1=CC2=C(C=C1CC3=C(F)C(=CC=C3)Cl)C(=O)\C(=C/N2[C@H](CO)C(C)C)C(O)=O [Elvitegravir] | -72.2
CO[C@H]1/C=C/O[C@@]2(C)Oc3c(C)c(O)c4c(O)c(c(/C=N/N5CCN(C)CC5)c(O)c4c3C2=O)NC(=O)/C(C)=C\C=C\[C@H](C)[C@H](O)[C@@H](C)[C@@H](O)[C@@H](C)[C@H](OC(C)=O)[C@@H]1C [Rifampicin] | -20.5
CCCC1=NC(=C2[N]1NC(=N\C2=O)/C3=CC(=CC=C3OCC)[S+]([O-])(=O)N4CCN(CC)CC4)C [Vardenafil] | -19.1
CC1CNc2c(cccc2[S+](=O)([O-])N[C@@H](CCCNC(=N)N)C(=O)N2CC[C@@H](C)C[C@@H]2C(=O)O)C1 (stereo partly specified) [Argatroban] | -15.9
Cc1ccccc1C(C(=O)NC1CCCCC1)N(C(=O)Cn1ccnc1C)c1cccc(F)c1 (stereo unspecified) [AGI-5198] | -18.4
CC(C)OC(=O)C(C)(C)Oc1ccc(C(=O)c2ccc(Cl)cc2)cc1 [Fenofibrate] | -34.6
Cc1c(F)cc(C(=O)NC2CC2)cc1-c1ccc(C(=O)NCC(C)(C)C)cn1 [Losmapimod] | -18.8
CN1\C=C(/N=C(NC2=CC=C(C=C2)C(=O)N3CCOCC3)\C1=O)C4=C(C)C(=CC=C4)NC(=O)C5=CC=C(C=C5)C(C)(C)C [CGI-1746] | -29.2
CC(C)Oc1ccc(-c2nc(-c3cccc4c3CC[C@@H]4NCCO)no2)cc1C#N [Ozanimod] | -31.3
CCCCc1ccc(N[S+](=O)([O-])c2ccc(C)c(C(=O)N3CCN(c4cccc(C)c4C)CC3)c2)cc1 [IDH-001] | -48.4
COC1=CC(=CC(=C1CN(C)C)OC)\C2=C\N(C)C(=O)C3=C2C=CN=C3 [BI-7273] | -29.9
COC(=O)C1=C(C)NC(C)=C(C(=O)OCCN2CCN(C(c3ccccc3)c3ccccc3)CC2)C1c1cccc([N+](=O)[O-])c1.Cl.Cl (stereo unspecified) [Manidipine] | -75
C=C(c1ccc(C(=O)O)cc1)c1cc2c(cc1C)C(C)(C)CCC2(C)C [Bexarotene] | -19.6
CN(Cc1ccccc1)C(=O)c1ccc([S+](=O)([O-])Nc2ccccc2)cc1 [Compound 2] | -20.4
C[C@@H]\1CC(=O)N\N=C1C2=CC=C(NN=C(C#N)C#N)C=C2 [Levosimendan] | -64.6
FC1=CC=C(SC/2=N/N3\C=N/C(=O)/C(=C3/C=C2)C4=C(Cl)C=CC=C4Cl)C(=C1)F [VX-745] | -34.7
COCCCc1sc(-c2ccccc2)nc1C(=O)Nc1ccccc1-c1nc2cc(CN3CCCC3)cnc2s1 [SRT-3025] | 7.71
O=C(O)CCNc1cc(N2CCc3ccccc3CC2)nc(-c2cccnc2)n1 [GSK-J2] | -21.7

SMILES | efficacy [%]
c1ccc2[nH]c(-c3cscn3)nc2c1 [Thiabendazole] | -7.02
C[C@H](CCC(=O)O)[C@H]1CC[C@H]2[C@@H]3[C@H](O)C[C@@H]4C[C@H](O)CC[C@]4(C)[C@H]3CC[C@]12C [Chenodeoxycholic acid] | -16
Nc1cc(c(cc1S(=O)(N)=O)S(N)(=O)=O)C(/Cl)=C(/Cl)Cl [Clorsulon] | -7.71
CC(O)(C[S+](=O)([O-])c1ccc(F)cc1)C(=O)Nc1ccc(C#N)c(C(F)(F)F)c1 (stereo unspecified) [Bicalutamide] | -14.2
C1Cc2[nH]nc(-c3nn[nH]n3)c2C1 [MK-0354] | -7.85
CCN(CC)CCOc1ccc(Cc2ccccc2)cc1 [Tesmilifene hydrochloride] | -27
Cn1cc(-c2ccc(-c3cncc(Cl)c3N3CCC4(CCNC4=O)CC3)cc2)cn1 | -49.2
Nc1nc(OC(c2ccc(-c3cccc(F)c3)cc2)C(F)(F)F)cc(-c2ccc(C[C@@H](N)C(=O)O)cc2)n1 (stereo partly specified) | -26
CC1(C)CN(C(=O)c2ccc(-c3cccc4nc(NC(=O)C5CC5)nn34)cc2)C1 [Solcitinib] | -18.3
C[C@]12CC[C@@H]3c4ccc(O)cc4CC[C@H]3[C@@H]1[C@@H](O)[C@@H](O)[C@@H]2O [Estetrol] | -16.1
CC1=CC(=CC=C1)OC/2=C/NC(=O)/N=C2 [Tolimidone] | 6.41
O=C(O)CC/C=C\CC[C@@H]1[C@@H](N2CCCCC2)[C@@H](O)C[C@@H]1OCc1ccc(-c2ccccc2)cc1 [Vapiprost hydrochloride] | -23.2
O=C(NC[C@H](O)CN1CCc2ccccc2C1)c1ccnc(NC2CCC2)c1 | -5.9
S=P(N1CC1)(N1CC1)N1CC1 [ThioTEPA] | -13.1
C/C(=C\C(=O)Nc1ccccc1C(=O)O)c1ccc2ccccc2c1 [BIBR-1532] | -69.1
CC1C\2C(O)C3C(N(C)C)C(=O)\C(=C(O)/C3(O)C(=O)C2=C(O)/C4=C1C=CC=C4O)C(N)=O (stereo unspecified) [Doxycycline] | -26.7
COc1cc2c(NC3CCN(C)CC3)nc(N3CCCN(C)CC3)nc2cc1OCCCN(C)C [UNC-0224] | -57.9
CCOC(=O)[C@@H](N)Cc1ccc(-c2cc(O[C@H](c3ccc(Cl)cc3-n3ccc(C)n3)C(F)(F)F)nc(N)n2)cc1 [Telotristat Etiprate (LX 1606 Hippurate)] | -95.9
Nc1nc(N)c2nc(-c3cccc(O)c3)c(-c3cccc(O)c3)nc2n1 | -7.47
Clc1ccc2c(N3CCN(CCCN4CCN(c5ccnc6cc(Cl)ccc56)CC4)CC3)ccnc2c1 [Piperaquine] | -15.3
OC(CCN1CCCCC1)(C2CC\3CC2\C=C3)C4=CC=CC=C4 (stereo unspecified) [Biperiden] | -34.7
CN1C[C@@H]2c3ccccc3Oc3ccc(Cl)cc3[C@H]2C1 [Asenapine maleate] | -77.1
Oc1ccc(Nc2nc(-c3ccc(Cl)cc3)cs2)cc1 [SKI-II] | -62.8
